Source: publication PMC6838683, “Discovery of Human Signaling Systems: Pairing Peptides to G Protein-Coupled Receptors” (Cell, 2019)

Columns and labels:
Format in all cases: cell-based
[1] = target: T1, GPR68 (Homo sapiens, UniProt Q15743); test: Dynamic mass redistribution (DMR), concentration-response; design: hIL-2Ra signal peptide (N); expressed in transfected cells; conditions: receptor GPR68; mean, SEM and n (3-4)
Experimental: (§1) 48 hr prior to parallel assaying, SNAP-tagged oGPCR cells were plated (10,000 cells/well) in fibronectin-coated 384-well Epic biosensor microplates (Corning) and poly-D-lysine coated white 384-well plates (for internalization assays). SNAP- GLP-1 receptor was plated alongside orphan receptor cells as an internal assay control for internalization assays. Receptor-expression was induced with 0.1 μg/ml doxycycline.
DMR assays provide a single integrated readout of ligand-dependent cellular response, utilizing an optical biosensor in specialized microplates to detect wavelength shifts of reflected light as it passes through the biosensor and the lower portion of the cell (∼150-200 nm). As a signal pathway agnostic approach, DMR assays are well-suited to the study of GPCRs ([Fang et al., 2008], [Schröder et al., 2011]). The mass redistribution response (Δ picometer (pm)) likely reflects a number of intracellular events, including cytoskeletal rearrangement, protein trafficking and receptor internalization. Orphan receptor-expressing cells were gently washed twice with assay buffer (HBSS with 1 mM CaCl2, 1 mM MgCl2, 20 mM HEPES, 0.01% pluronic F-68, pH 7.4) containing 0.1% DMSO and cells were equilibrated for 90 min at 22°C in the EPIC Benchtop (BT) System (Corning) to establish a stable DMR signal. After 3-5 min baseline recordings, peptides (10 μM) were added in duplicate wells using an electronic 384-channel Viaflo pipette (Integra Biosciences, Switzerland) and DMR responses were measured for 60 min at 22°C. 100 nM norepinephrine was included as an internal assay control to assess the cellular DMR response via endogenously-expressed adrenoceptors in the TREx 293 cells. Real-time data were processed using the BT to column converter MS-Excel macro (Corning) and analyzed in GraphPad Prism 7.0. DMR recordings in peptide screening experiments were buffer and solvent corrected and the area under the curve (AUC) was quantified. For subsequent validation experiments, peptides were diluted in assay buffer containing 0.1% DMSO and DMR assays were performed as above. […] Data represent mean ± standard error of the mean (SEM) from at least 3 biologically independent experiments.

[2] = target: T1, GPR68; test: Real-time receptor internalization (TR-FRET), concentration-response; design: hIL-2Ra signal peptide (N); expressed in transfected cells; conditions: receptor GPR68; mean, SEM and n (3)
Experimental: as §1
A TR-FRET real-time internalization assay was used to examine peptide-dependent changes in orphan receptor localization as described previously ([Foster and Bräuner-Osborne, 2018]). Surface-expressed SNAP-tagged receptors were labeled with a cell-impermeable luminescent terbium cryptate (100 nM SNAP Lumi4-Tb; Cisbio, France) for 1 hr at 37°C. Cells were washed to remove excess terbium and incubated with fluorescein-O-acetic acid (100 μM; Sigma Aldrich) for 5 min at 37°C. Peptides were added as for DMR assays, and internalization responses were recorded for 60 min at 37°C using an EnVision 2104 Multimode plate reader (PerkinElmer). 100 nM GLP-1 was used as a positive control for SNAP-GLP1R internalization. Real-time internalization responses were calculated based on TR-FRET (excitation 340 nm; emission 520 nm and 615 nm), and were expressed as the ratio between donor (terbium) and acceptor (fluorescein) emission. For peptide screening analysis (both DMR and internalization assays), we calculated the area under the curve from the real-time traces. As the magnitude of the responses was variable between orphan receptor targets, particularly for the SNAP-tag based internalization assay where the signal is dependent on receptor surface expression, the AUC values were normalized to their respective plate averages and expressed as fold change. Validation experiments for receptor internalization were performed as above. Internalization data was processed in MS-Excel and area under the curve was used to generate concentration-response curves using GraphPad Prism 7.0. Data represent mean ± standard error of the mean (SEM) from at least 3 biologically independent experiments.

[3] = target: T2, BB3 (Homo sapiens, UniProt P32247); test: as above; conditions: pEC50, Internalization (AUC)
T2 construct: hIL-2Ra signal peptide (N); expressed in transfected cells
T2 sequence (P32247 2-399 limits assumed): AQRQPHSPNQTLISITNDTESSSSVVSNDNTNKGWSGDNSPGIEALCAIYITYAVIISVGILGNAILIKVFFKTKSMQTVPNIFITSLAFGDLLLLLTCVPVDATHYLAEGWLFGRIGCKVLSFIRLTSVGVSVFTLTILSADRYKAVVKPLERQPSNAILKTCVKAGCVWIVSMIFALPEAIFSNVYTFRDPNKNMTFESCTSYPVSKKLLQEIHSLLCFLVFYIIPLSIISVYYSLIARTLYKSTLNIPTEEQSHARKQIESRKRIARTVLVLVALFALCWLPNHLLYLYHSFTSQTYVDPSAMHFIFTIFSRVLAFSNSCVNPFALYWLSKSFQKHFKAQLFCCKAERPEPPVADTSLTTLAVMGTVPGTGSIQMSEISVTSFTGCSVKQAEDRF

[4] = target: T3, BB3 (Homo sapiens, UniProt P32247); test: β-arrestin recruitment (Tango), validation; conditions: BB3; mean, SEM and n; read-out: pEC50, Tango (fold over basal) (converted)
T3 construct: host or cells: HTLA cells (HEK293-derived)
T3 sequence (P32247 1-399): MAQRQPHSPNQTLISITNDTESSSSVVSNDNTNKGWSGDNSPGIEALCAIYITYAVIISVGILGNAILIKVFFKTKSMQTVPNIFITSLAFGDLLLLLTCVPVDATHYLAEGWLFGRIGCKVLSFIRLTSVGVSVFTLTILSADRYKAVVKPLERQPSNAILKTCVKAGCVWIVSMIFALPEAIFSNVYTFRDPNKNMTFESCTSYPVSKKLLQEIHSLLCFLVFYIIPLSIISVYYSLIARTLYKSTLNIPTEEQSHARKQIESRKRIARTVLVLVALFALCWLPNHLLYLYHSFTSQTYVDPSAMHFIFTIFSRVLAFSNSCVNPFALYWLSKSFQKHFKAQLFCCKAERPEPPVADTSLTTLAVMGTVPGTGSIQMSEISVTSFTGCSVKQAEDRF
Experimental: The peptide library was additionally screened against 120 GPCR targets in parallel, including all available orphan receptors and 27 known class A peptide receptors using the Tango assay platform ([Kroeze et al., 2015]). Briefly, HTLA cells (a HEK293 cell line stably expressing a tTA-dependent luciferase reporter and a β-arrestin2-TEV fusion gene) were plated 10,000 cells/well in poly-L-lysine–coated clear-bottom white 384-well plates in DMEM supplemented with 10% FBS, 100 U/ml penicillin and 100 μg/ml streptomycin, 2 μg/ml puromycin and 100 μg/ml hygromycin B. 24 hr later, cells were transfected with Tango GPCR constructs using the calcium phosphate method ([Jordan et al., 1996]). The next day, culture medium was changed to DMEM + 1% dFBS and 10 μM peptides were added for overnight stimulation. Bright-Glo solution (Promega) was incubated for 15–20 min at room temperature, and luminescence was counted using a Trilux luminescence counter (Wallac).
For subsequent peptide validation experiments using Tango assays, HTLA cells were transiently transfected in 10 cm dishes with the receptor of interest using polyethylenimine (PEI) ([Longo et al., 2013]). After 24 hr, 25,000 cells/well were plated in clear bottom, white-walled 384-well plates. Assays were performed as described above, with luminescence measured using an EnSpire 2300 Multimode plate reader (PerkinElmer). Luminescence counts were exported into Excel and were analyzed using GraphPad Prism 7.

[5] = target: T4, GPR1 (Homo sapiens, UniProt P46091); test: β-arrestin recruitment (Tango), validation; design: host or cells: HTLA cells (HEK293-derived); conditions: pEC50, Tango (fold over basal), GPR1; mean, SEM and n
T4 sequence (P46091 1-355): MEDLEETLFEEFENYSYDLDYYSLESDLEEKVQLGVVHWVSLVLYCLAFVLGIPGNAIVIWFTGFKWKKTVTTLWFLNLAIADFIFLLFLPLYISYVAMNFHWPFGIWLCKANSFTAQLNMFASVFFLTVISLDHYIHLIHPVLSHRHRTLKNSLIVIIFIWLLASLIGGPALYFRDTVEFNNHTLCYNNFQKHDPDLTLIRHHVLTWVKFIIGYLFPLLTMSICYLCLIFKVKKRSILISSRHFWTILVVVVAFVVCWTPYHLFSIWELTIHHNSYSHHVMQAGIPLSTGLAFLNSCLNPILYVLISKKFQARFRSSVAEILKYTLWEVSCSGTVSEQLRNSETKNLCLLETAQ

[6] = target: T2, BB3; test: Dynamic mass redistribution (DMR), concentration-response; conditions: pEC50, DMR (peak), BB3; mean, SEM and n
[7] = target: T2, BB3; test: IP1 accumulation (Gq/11), HTRF; conditions: pEC50, IP1 (nM), BB3; mean, SEM and n
[8] = target: T4, GPR1; test: β-arrestin recruitment (PathHunter); conditions: GPR1; mean, SEM and n; read-out: pEC50, PathHunter (fold over basal) (converted)
Experimental: PathHunter eXpress Assays (DiscoverX) were performed in 384-well format according to the manufacturer’s recommendations. GPR1 cells were incubated with peptides for 90 min and luminescence measured using an EnSpire 2300 Multimode plate reader (PerkinElmer).

T1 sequence (Q15743 2-365 limits assumed): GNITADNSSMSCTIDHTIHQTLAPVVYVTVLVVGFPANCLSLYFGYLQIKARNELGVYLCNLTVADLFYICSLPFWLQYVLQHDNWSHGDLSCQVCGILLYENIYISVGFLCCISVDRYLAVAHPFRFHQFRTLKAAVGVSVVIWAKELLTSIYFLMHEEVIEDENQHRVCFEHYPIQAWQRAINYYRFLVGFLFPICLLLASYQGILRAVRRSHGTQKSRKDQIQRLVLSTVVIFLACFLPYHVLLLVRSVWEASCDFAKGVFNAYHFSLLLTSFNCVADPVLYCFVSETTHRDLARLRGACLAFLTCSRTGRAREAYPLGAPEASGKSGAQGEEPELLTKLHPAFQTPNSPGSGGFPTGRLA

RFGIPMDRIGRNRLSNSRG [128 original]
DMR assays Emax (peak or AUC) [1]: 893047
Internalization assays Emax (AUC) [2]: 8.3

CSCC[C@H](NC(=O)[C@H](CC(C)C)NC(=O)[C@H](Cc1c[nH]cn1)NC(=O)CNC(=O)[C@@H](NC(=O)[C@H](C)NC(=O)[C@H](Cc1c[nH]c2ccccc12)NC(=O)[C@H](Cc1c[nH]cn1)NC(=O)[C@H](CC(N)=O)NC(=O)CNC(=O)[C@H](CCCN=C(N)N)NC(=O)[C@@H]1CCCN1C(=O)[C@H](Cc1ccc(O)cc1)NC(=O)[C@H](CCSC)NC(=O)[C@H](CCCCN)NC(=O)[C@@H](NC(=O)[C@H](CC(C)C)NC(=O)[C@@H](NC(=O)[C@@H](NC(=O)CNC(=O)CNC(=O)CNC(=O)[C@H](C)NC(=O)[C@@H]1CCCN1C(=O)[C@H](CC(C)C)NC(=O)[C@@H]1CCCN1C(=O)[C@@H](N)C(C)C)[C@@H](C)O)C(C)C)[C@@H](C)O)C(C)C)C(N)=O [Gastrin-releasing peptide (GRP)]
EC50 [3]: 14.8 µM
EC50 [4]: 43.7 µM
EC50 [5]: 5.5 µM
EC50 [6]: 2.04 µM
EC50 [7]: 447 nM
EC50 [8]: 0.398 µM
